# According to ChEMBL document CHEMBL1201862, “PubChem BioAssay data set” (2004):
# The source made the active and inactive calls.
# What was measured:
# [1] = target: C-C chemokine receptor type 6 (Homo sapiens, UniProt P51684); test: antagonism of CCR6 beta-arrestin recruitment – cell-based, luminescent beta-arrestin readout, dose response (AID 504728); type: functional
# Beta-galactosidase = Beta-galactosidase (Escherichia coli, UniProt Q8VNN2); test: detection-enzyme interference by beta-gal modulators – biochemical, E. coli enzyme, set 3, artefact control for CCR6 antagonist project, dose response (AID 504712); type: functional
# Troponin, cardiac muscle = Troponin, cardiac muscle (Homo sapiens, UniProt P19429+P45379+P63316); test: Fluorescence-based biochemical high throughput dose response assay for activators of the calcium sensitivity of cardiac Regulated Thin Filaments (RTF). [Related pubchem assays (depositor defined):AID493008, AID493018, AID504382, AID504383]; type: protein-complex assay
# [2] = target: T1, E3 ubiquitin-protein ligase XIAP (Homo sapiens, UniProt P98170); test: Counter Screen using XIAP-Bir3 for Chemical Antagonists of Bir1/2 domains of IAP-family anti-apoptotic proteins. [Related pubchem assays (depositor defined):AID1018, AID1449, AID1514, AID1638, AID1749, AID1750, AID488957, AID488963]
# [3] = target: T1, E3 ubiquitin-protein ligase XIAP; test: small molecules displacing peptide from XIAP – biochemical, IAP family, fluorescence polarization (AID 1018); type: functional
# [4] = target: T2, Short transient receptor potential channel 4 (Mus musculus, UniProt Q9QUQ5); test: SAR Analysis for the identification of selective inhibits of the transient receptor potential cation channel C4 (TRPC4): Automated Electrophysiology_2. [Related pubchem assays (depositor defined):AID2256]; type: functional
# T2 sequence (Q9QUQ5 whole entry): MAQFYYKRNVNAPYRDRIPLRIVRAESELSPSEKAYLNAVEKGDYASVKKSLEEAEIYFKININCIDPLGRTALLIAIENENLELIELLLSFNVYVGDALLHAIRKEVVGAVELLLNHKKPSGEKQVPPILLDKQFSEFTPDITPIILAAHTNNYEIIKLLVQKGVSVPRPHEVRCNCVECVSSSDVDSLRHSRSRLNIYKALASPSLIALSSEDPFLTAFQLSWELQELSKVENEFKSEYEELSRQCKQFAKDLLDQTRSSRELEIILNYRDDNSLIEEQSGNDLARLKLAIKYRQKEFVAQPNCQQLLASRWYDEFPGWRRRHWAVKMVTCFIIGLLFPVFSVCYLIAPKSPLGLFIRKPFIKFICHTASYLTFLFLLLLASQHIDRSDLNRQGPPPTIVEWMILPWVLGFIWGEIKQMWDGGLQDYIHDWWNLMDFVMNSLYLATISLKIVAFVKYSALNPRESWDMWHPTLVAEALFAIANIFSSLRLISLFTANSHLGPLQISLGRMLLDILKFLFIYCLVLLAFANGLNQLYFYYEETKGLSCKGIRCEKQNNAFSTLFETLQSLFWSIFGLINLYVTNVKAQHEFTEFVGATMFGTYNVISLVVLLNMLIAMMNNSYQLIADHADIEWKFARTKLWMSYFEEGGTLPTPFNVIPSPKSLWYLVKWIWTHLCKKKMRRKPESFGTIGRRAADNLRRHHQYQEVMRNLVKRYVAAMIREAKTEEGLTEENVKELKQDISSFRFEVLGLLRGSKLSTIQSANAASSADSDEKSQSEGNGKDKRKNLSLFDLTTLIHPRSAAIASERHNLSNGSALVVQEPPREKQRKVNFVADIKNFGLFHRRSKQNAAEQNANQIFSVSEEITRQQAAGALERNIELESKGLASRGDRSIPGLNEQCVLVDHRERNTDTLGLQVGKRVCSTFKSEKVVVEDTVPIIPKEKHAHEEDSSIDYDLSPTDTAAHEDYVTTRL
# Cytochrome P450 2C19 = Cytochrome P450 2C19 (Homo sapiens, UniProt P33261); test: Cytochrome panel assay with activity outcomes. Panel member name: p450-cyp2c19 Compounds with AC50 equal or less than 10 uM are considered active; type: functional
# Cytochrome P450 1A2 = target: T3, Cytochrome P450 1A2 (Homo sapiens, UniProt P05177);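 note: PubChem cytochrome P450 panel assay, CYP1A2 panel member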
# T3 sequence (P05177 whole entry): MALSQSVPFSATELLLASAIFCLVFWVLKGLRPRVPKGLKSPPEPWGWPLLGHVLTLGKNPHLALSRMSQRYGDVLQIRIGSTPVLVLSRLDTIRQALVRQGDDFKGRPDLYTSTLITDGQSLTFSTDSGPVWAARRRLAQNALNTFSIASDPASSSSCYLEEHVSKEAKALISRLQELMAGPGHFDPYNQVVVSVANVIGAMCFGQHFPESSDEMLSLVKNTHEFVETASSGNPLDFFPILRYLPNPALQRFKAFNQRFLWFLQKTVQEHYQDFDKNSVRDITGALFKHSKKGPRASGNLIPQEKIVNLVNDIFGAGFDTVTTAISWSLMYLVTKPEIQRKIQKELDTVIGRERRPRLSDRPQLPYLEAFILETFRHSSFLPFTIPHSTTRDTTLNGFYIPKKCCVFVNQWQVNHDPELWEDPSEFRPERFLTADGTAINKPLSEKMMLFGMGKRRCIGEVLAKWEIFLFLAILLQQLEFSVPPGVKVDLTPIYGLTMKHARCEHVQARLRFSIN
# Cytochrome P450 2C9 = Cytochrome P450 2C9 (Homo sapiens, UniProt P11712)
# [5] = target: T4, Intestinal-type alkaline phosphatase (Homo sapiens, UniProt P09923); test: inhibition of human intestinal alkaline phosphatase – biochemical, luminescent, uHTS hits, set 2, dose response (AID 488793); type: functional
# [6] = target: T4, Intestinal-type alkaline phosphatase; test: Dose Response confirmation of uHTS hits from a small molecule inhibitors of human intestinal alkaline phosphatase via a luminescent assay. [Related pubchem assays (depositor defined):AID2544, AID2574]; type: functional
# [7] = target: T5, Intestinal-type alkaline phosphatase (Mus musculus, UniProt P24822); test: PubChem AID 488875; type: functional
# [8] = target: T6, Alkaline phosphatase, tissue-nonspecific isozyme (Homo sapiens, UniProt P05186); test: activation of tissue-nonspecific alkaline phosphatase – biochemical, TNAP isozyme, human IAP uHTS hits, selectivity assay for human IAP activator project, dose response (AID 488886); type: functional;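 note: potency of compounds raising TNAP activity as a selectivity check on IAP activators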
# T6 sequence (P05186 whole entry): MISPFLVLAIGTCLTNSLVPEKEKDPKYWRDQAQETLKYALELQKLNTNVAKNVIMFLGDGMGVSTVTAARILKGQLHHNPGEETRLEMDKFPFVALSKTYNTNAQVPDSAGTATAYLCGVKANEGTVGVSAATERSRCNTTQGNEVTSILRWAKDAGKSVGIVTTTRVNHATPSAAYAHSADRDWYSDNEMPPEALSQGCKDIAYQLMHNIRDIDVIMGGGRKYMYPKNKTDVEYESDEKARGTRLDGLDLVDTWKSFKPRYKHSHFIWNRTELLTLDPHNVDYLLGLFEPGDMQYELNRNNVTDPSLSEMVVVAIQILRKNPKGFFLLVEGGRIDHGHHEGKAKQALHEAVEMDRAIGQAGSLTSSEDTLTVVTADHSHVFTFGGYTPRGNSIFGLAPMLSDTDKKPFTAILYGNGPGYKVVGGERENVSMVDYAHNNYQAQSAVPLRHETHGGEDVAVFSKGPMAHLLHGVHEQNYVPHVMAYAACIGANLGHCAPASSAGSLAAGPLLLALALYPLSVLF
# [9] = target: T4, Intestinal-type alkaline phosphatase; test: human intestinal alkaline phosphatase activators, dose response, biochemical, luminescence, uHTS hits (AID 463120); type: functional
# [10] = target: T4, Intestinal-type alkaline phosphatase; test: activation of human intestinal alkaline phosphatase – biochemical, luminescent, uHTS hits, set 2, dose response (AID 488817); type: functional;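 note: potency of activators that raise enzyme activity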
# SUMO-activating enzyme [11] = target: T7, SUMO-activating enzyme (Homo sapiens, UniProt Q9UBT2); test: blockers of UBC9-mediated SUMO conjugation – biochemical, AlphaScreen, SUMOylation inhibitor project, confirmation (AID 2018); type: functional
# SUMO-activating enzyme [12] = target: T7, SUMO-activating enzyme; test: blockers of SAE1/SAE2–UBC9 SUMO transfer – biochemical, HTRF, uHTS, primary screen (AID 2006); type: protein-complex assay
# [13] = target: T8, Mannose-6-phosphate isomerase (Homo sapiens, UniProt P34949); test: MPI inhibition at elevated mannose 6-phosphate – biochemical, fluorescence intensity, high mannose 6-phosphate, primary screen (AID 1220)
# T8 sequence (P34949 whole entry): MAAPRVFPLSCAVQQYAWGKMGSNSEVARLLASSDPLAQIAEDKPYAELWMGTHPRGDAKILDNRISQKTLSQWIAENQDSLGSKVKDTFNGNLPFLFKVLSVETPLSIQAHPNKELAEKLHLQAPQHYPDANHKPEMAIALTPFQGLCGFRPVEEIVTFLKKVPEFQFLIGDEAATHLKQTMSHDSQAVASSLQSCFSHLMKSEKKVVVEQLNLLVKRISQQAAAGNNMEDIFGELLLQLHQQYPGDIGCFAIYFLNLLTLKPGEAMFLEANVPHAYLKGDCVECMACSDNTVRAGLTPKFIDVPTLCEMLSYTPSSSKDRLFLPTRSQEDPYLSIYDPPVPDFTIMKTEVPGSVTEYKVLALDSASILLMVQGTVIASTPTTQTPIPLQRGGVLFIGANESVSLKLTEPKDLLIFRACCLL
# HEK293 [14] = test: cells; details: Homo sapiens
# HEK293 [15] = test: cells; details: Homo sapiens; remark: listed apart in the source
# [16] = target: DNA dC->dU-editing enzyme APOBEC-3G (Homo sapiens, UniProt Q9HC16); test: Dose Response confirmation of small molecule APOBEC3G DNA Deaminase Inhibitors via a fluorescence-based single-stranded DNA deaminase assay. [Related pubchem assays (depositor defined):AID493012, AID493028]; type: functional
# [17] = target: Alkaline phosphatase, placental type (Homo sapiens, UniProt P05187); test: human placental alkaline phosphatase inhibition – biochemical, luminescence, confirmation (AID 1512); type: functional
# [18] = NIH-3T3 fibroblast cytotoxicity, dose response, cytotoxicity control, cell-based, fluorescence, Alamar Blue, secondary assay (AID 2327); type: functional;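 note: NIH-3T3 mouse fibroblasts cultured with fluconazole at 8 µg/mL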
# [19] = fluconazole-exposed Candida albicans growth modulators – fluorescence, retest, confirmation (AID 2467); type: functional, cell-based
# [20] = target: Induced myeloid leukemia cell differentiation protein Mcl-1 (Homo sapiens, UniProt Q07820); type: functional
# [21] = target: T5, Intestinal-type alkaline phosphatase; test: PubChem AID 488785; type: functional
# [22] = target: T6, Alkaline phosphatase, tissue-nonspecific isozyme; test: TNAP enzyme inhibition by screening hits, dose response, selectivity assay for mouse IAP inhibitor project, biochemical, human TNAP, uHTS hits (AID 488906); type: functional
# [23] = target: T4, Intestinal-type alkaline phosphatase; test: inhibition of human intestinal alkaline phosphatase – biochemical, dose response (AID 488876); type: functional
# T1 sequence (P98170 whole entry): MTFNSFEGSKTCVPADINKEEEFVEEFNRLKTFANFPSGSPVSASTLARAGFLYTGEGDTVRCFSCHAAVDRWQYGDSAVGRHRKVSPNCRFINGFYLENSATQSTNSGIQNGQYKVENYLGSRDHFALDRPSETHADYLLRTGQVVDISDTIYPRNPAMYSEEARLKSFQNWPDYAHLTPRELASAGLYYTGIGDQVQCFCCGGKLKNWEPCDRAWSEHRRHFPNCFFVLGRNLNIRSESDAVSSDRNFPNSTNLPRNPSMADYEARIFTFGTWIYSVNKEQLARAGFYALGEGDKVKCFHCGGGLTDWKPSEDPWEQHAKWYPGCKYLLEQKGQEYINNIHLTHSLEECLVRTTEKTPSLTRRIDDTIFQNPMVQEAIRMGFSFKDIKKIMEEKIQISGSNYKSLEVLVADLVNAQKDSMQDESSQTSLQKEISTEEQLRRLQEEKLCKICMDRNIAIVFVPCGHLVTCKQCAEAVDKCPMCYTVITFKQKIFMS
# T4 sequence (P09923 whole entry): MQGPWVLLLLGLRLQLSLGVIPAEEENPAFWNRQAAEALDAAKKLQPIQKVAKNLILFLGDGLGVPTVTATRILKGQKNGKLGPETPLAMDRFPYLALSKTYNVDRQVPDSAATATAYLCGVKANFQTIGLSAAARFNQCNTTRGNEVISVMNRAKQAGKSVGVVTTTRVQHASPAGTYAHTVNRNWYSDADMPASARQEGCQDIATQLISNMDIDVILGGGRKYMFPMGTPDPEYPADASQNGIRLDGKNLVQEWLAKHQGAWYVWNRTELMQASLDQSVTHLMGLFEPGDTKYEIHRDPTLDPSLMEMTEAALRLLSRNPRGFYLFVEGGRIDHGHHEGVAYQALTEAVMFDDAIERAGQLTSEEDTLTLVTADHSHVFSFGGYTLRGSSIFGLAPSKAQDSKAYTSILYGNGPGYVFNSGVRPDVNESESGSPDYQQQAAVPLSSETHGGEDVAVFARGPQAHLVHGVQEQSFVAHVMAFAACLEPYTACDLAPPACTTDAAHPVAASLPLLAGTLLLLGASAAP
# T7 sequence (Q9UBE0 whole entry): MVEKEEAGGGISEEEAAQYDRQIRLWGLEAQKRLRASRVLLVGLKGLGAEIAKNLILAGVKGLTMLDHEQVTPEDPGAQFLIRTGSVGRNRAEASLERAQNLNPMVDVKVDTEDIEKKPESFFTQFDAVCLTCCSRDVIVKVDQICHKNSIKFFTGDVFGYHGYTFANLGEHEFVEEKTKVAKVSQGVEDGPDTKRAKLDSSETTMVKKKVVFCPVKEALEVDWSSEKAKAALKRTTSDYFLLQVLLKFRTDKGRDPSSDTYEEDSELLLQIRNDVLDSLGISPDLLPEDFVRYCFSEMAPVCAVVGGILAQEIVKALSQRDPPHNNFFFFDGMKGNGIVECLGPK
# T7 sequence (Q9UBT2 whole entry): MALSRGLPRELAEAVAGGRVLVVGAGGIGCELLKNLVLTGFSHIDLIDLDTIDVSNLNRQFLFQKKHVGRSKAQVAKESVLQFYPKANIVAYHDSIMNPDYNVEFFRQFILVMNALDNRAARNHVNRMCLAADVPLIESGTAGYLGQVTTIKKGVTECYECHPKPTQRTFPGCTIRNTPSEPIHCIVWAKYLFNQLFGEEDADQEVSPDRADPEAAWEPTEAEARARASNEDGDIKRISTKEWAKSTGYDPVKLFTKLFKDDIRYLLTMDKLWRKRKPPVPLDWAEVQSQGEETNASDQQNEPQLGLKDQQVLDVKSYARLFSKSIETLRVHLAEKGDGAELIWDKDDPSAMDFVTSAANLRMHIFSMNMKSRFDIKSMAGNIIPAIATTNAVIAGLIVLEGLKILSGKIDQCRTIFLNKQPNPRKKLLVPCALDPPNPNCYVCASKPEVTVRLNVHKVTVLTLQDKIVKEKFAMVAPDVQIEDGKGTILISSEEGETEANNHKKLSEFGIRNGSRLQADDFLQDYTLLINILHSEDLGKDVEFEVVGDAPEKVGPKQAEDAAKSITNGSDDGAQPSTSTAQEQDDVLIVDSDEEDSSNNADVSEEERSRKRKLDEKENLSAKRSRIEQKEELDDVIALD
# T5 sequence (P24822 whole entry): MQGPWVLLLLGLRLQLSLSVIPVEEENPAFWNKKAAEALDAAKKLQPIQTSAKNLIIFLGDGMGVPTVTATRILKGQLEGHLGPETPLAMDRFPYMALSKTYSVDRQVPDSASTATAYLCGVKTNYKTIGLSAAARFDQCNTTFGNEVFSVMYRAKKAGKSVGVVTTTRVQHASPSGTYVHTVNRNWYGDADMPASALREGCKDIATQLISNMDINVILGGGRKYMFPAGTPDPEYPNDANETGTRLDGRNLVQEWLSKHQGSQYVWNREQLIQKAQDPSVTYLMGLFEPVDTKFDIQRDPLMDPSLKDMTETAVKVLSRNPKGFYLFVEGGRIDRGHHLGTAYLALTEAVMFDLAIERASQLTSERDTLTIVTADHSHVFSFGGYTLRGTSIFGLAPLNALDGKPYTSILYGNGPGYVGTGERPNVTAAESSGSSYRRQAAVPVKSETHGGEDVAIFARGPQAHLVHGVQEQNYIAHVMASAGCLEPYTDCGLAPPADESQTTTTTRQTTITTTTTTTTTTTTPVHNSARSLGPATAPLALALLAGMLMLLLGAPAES
# Sequence of Cytochrome P450 2C19 (P33261 whole entry): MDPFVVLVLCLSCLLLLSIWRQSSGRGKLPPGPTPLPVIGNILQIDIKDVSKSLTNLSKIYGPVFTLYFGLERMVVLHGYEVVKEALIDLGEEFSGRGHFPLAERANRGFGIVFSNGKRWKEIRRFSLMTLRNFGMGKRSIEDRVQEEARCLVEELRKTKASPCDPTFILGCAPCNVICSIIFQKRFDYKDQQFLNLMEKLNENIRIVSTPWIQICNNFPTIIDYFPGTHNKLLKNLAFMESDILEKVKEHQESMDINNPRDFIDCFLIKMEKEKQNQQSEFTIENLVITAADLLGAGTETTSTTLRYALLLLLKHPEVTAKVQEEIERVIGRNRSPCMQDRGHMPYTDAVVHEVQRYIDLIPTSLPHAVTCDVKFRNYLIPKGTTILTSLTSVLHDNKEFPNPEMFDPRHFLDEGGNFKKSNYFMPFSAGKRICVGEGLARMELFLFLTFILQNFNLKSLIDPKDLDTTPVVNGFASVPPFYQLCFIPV
# Sequence of Induced myeloid leukemia cell differentiation protein Mcl-1 (Q07820 whole entry): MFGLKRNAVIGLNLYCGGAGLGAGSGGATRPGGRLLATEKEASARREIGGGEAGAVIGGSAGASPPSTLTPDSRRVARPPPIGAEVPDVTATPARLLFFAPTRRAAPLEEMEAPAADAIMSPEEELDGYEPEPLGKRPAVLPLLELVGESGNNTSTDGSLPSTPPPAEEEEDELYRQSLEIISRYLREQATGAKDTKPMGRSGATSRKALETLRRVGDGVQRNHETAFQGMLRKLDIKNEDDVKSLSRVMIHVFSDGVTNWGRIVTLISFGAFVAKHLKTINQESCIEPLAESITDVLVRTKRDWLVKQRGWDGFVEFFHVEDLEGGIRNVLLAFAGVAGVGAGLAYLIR
# Sequence of Alkaline phosphatase, placental type (P05187 whole entry): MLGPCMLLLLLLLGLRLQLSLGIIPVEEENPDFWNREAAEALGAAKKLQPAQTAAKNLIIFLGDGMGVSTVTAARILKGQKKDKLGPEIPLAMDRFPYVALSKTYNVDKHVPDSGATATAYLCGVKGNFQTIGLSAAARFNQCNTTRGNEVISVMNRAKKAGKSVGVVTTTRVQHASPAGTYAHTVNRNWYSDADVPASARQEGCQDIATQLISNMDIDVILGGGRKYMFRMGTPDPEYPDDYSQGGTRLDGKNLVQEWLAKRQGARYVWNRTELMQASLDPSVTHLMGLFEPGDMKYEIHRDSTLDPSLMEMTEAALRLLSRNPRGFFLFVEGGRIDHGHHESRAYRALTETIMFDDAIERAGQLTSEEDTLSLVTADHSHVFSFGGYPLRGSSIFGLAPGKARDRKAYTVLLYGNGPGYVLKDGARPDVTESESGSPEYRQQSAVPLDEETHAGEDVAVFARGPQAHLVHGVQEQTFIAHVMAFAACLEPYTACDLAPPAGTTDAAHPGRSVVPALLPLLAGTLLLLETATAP
# Sequence of C-C chemokine receptor type 6 (P51684 whole entry): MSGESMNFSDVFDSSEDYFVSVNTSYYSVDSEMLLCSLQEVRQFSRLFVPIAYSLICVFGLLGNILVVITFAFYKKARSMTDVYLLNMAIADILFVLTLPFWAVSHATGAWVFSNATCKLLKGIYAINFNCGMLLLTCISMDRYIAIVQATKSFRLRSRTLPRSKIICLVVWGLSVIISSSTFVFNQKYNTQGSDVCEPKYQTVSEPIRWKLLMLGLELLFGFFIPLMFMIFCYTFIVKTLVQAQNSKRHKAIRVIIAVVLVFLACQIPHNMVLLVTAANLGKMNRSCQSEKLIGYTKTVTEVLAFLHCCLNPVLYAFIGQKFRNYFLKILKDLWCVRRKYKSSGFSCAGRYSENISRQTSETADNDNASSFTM
# Sequence of DNA dC->dU-editing enzyme APOBEC-3G (Q9HC16 whole entry): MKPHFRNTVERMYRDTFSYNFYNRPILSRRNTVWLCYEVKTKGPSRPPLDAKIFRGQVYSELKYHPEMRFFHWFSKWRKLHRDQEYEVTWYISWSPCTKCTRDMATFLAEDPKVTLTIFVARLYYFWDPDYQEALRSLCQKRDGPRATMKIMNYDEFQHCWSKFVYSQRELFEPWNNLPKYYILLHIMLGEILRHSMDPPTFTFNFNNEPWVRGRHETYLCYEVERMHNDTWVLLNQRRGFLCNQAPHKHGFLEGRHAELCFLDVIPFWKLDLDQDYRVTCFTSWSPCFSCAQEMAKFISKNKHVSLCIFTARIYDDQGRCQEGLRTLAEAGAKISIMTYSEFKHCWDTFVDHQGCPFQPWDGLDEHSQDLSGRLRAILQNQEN
compound,measurement,setting,value
CC1C(c2ccccc2)N(C)C(c2ccccc2)C(C)C1(O)C#Cc1ccccc1 (configuration not stated),IC50,[1],> 66.6 µM (inactive)
same,IC50,Beta-galactosidase,> 66.6 µM (inactive)
COc1cc(-c2c(-c3ccc4c(c3)OCO4)noc2C)ccc1F,EC50,"Troponin, cardiac muscle",> 71.4 µM (inactive)
Cc1ccc(-c2nc3ccccc3c(=O)n2CCN2CCOCC2)cc1,IC50,[2],> 100 µM (inactive)
same,IC50,[3],> 100 µM (not active)
COc1ccccc1N1CCN(c2cc(C)c3ccccc3n2)CC1,IC50,[4],9.89 µM (active)
CS(=O)(=O)N1CCC2(CC1)CN(c1ccc(-c3ccccc3)cc1)C2,AC50,Cytochrome P450 2C19,inconclusive
same,AC50,Cytochrome P450 1A2,inconclusive
same,AC50,Cytochrome P450 2C9,inconclusive
COc1cc2nc(N3CCN(C(=O)[C@H]4COc5ccccc5O4)CC3)nc(N)c2cc1OC.CS(=O)(=O)O,AC50,Cytochrome P450 2C19,inactive
same,AC50,Cytochrome P450 1A2,inactive
Cc1[nH]n(-c2nc(-c3ccccc3)cc(=O)[nH]2)c(=O)c1CCO,IC50,[5],2.36 µM (active)
same,IC50,[6],2.82 µM (active)
same,EC50,[7],> 100 µM (inactive)
same,EC50,[8],30.7 µM (active)
CC(=O)Nc1cccc(C(=O)NNC(=O)c2nnc(O)c3ccccc23)c1,EC50,[7],> 100 µM (inactive)
same,EC50,[9],6.37 µM (active)
same,EC50,[10],12.3 µM (active)
same,EC50,[8],11 µM (active)
O=C(O)CN1C(=O)/C(=C/c2ccc(SCc3ccccc3)o2)SC1=S,IC50,SUMO-activating enzyme [11],4.13 µM (active)
same,IC50,SUMO-activating enzyme [12],15.5 µM (active)
same,IC50,[13],> 50 µM (not active)
O=C(Nc1ccccc1Cl)c1ccccc1CC(O)(c1ccccc1)c1ccccc1,EC50,HEK293 [14],> 59.7 µM (inactive)
same,EC50,HEK293 [15],> 59.7 µM (inactive)
NC(=O)C1CCN(C(=O)c2ccc(-c3ccccc3)cc2)CC1,EC50,"Troponin, cardiac muscle",> 71.5 µM (inactive)
CCc1ccc(NC(=O)N2CCN(c3ccc(F)cc3)CC2)cc1,IC50,[2],> 100 µM (inactive)
same,IC50,[3],> 100 µM (not active)
CC(=O)NC(=S)NNC(=O)C(c1ccccc1)c1ccccc1,IC50,[16],35.1 µM (active)
same,IC50,[17],> 100 µM (inactive)
Cc1ccc(/C=C2\SC(=S)N(/N=C/c3cc([N+](=O)[O-])ccc3O)C2=O)o1,EC50,[18],> 150 µM (inactive)
same,IC50,SUMO-activating enzyme [11],0.35 µM (active)
same,EC50,[19],27.8 µM (active)
same,IC50,SUMO-activating enzyme [12],4.54 µM (active)
same,IC50,[20],1.53 µM (active)
same,IC50,[21],61.9 µM (active)
same,IC50,[22],> 100 µM (inactive)
same,IC50,[23],80 µM (active)
